According to patent US20250188082A1, “Use of Hypoxanthine Compound In Preparation of Drug For Treating Pulmonary Fibrosis” (Sichuan Yiasuo Pharmaceutical Technology Co., Ltd., priority 2022, published 2025):

What was measured:
Type in all cases: in vivo, C57BL/6 mice
[1] = system: mycoplasma-induced pulmonary fibrosis model (MPFH strain); assay: Mycoplasma-induced pulmonary fibrosis model; conditions: 120 mg/kg/d intragastric, 14 days; for Leucocyte / Lymphocyte / Neutrophil: MPFH mycoplasma + bleomycin, once a day, from two weeks after model; for Ashcroft scores: mycoplasma + bleomycin, lung tissue HE
Description: Experimental method: an in-vivo mycoplasma-induced pulmonary fibrosis model was established: C57BL/6 mice (with weights being 22-25 g) were randomly and evenly divided into a plurality of groups, including blank control group, model group, Nintedanib positive control group, hypoxanthine analogue A group, hypoxanthine analogue B group, hypoxanthine analogue C group, compound 1 group, compound 2 group . . . compound 12 group, with 9 mice in each group. Before a model was established, the mice were anesthetized with diethyl ether. In addition to that the mice in blank control group with instilled with 100 μL of normal saline nasally, the mice in other groups with slowly instilled with an equal volume of a MPFH strain solution (containing 1×10^7 mL^−1 MPFH strain) to the nasal cavity, for consecutive 3 days, and inhaled the MPFH strain solution into bronchi. After instillation with mycoplasmas through tracheas, the mice received 5 mg/kg bleomycin through tracheas to induce their pulmonary fibrosis. After the model was established for two weeks, the mice in each group were intragastrically administrated for intervention for consecutive 14 days; the mice in blank control group and model group intragastrically received an equal dosage of normal saline as those in drug groups; the mice in Nintedanib positive control group received Nintedanib (120 mg/kg); the mice in hypoxanthine analogue A group, hypoxanthine analogue B group and hypoxanthine analogue C group respectively received hypoxanthine analogue A (120 mg/kg/d), hypoxanthine analogue B (120 mg/kg/d) and hypoxanthine analogue C (120 mg/kg/d); and the mice in compound 1 group, compound 2 group . . . compound 12 group respectively received compound 1 (120 mg/kg/d), compound 2 (120 mg/kg/d) . . . compound 12 (120 mg/kg/d) prepared in example 1. The mice were administrated once a day to be treated for consecutive 14 days. The mice were observed every day, and their weights and death conditions were recorded. On the last day of administration, the mice were sacrificed; and blood was taken from eyeballs and kept at −80° C. for detecting blood routine indexes. Meanwhile, lungs were lavaged with normal saline and separated to collect lavage fluids for detecting counts and classes of leucocytes; and lung tissues were taken for HE straining and Ashcroft scoring on the extent of pulmonary fibrosis.

[2] = system: bleomycin-induced pulmonary fibrosis model; assay: Comparison with comparative drugs: bleomycin-induced model, hydroxyproline and TGF-β; conditions: 120 mg/kg/d intragastric, twice every day, 14 days, from two weeks after model; Day 15
[3] = system: bleomycin-induced pulmonary fibrosis model; assay: Early pulmonary fibrosis: bleomycin-induced model, dosing from one week after modelling; conditions: early pulmonary fibrosis, 120 mg/kg/d intragastric, 14 days, from one week after model; for Leucocyte / Lymphocyte / Neutrophil: blood, Day 15, twice every day; for Ashcroft scores: lung tissue HE staining
[4] = system: coronavirus-induced pulmonary fibrosis model (HcoV-OC43); assay: Coronavirus-induced pulmonary fibrosis model; conditions: 120 mg/kg/d intragastric, 14 days; for Ashcroft scores: coronavirus HcoV-OC43 + bleomycin, lung tissue HE; for IL-1β / IL-6 / NF-κB / TNF-α: serum, HcoV-OC43 + bleomycin, from two weeks after model
Description: Experimental method: an in-vivo coronavirus-induced pulmonary fibrosis model mice was established: C57BL/6 mice (with weights being 22-25 g) were randomly and evenly divided into a plurality of groups, including blank control group, model group, Nintedanib positive control group, hypoxanthine analogue A group, hypoxanthine analogue B group, hypoxanthine analogue C group, compound 1 group, compound 2 group . . . compound 12 group, with 9 mice in each group. On Day 1, the mice in the blank control group were instilled with normal saline nasally, and the mice in other groups were all infected with HcoV-OC43 coronavirus strains (30 μL) through nasal instillation. On Day 2, the mice received 5 mg/kg bleomycin through tracheas to induce their pulmonary fibrosis. After the model was established for two weeks, the mice in each group were intragastrically administrated for intervention for consecutive 14 days; the mice in blank control group and model group intragastrically received the same dosage of the normal saline as those in drug groups; the mice in Nintedanib positive control group received Nintedanib (120 mg/kg); the mice in hypoxanthine analogue A group, hypoxanthine analogue B group and hypoxanthine analogue C group respectively received hypoxanthine analogue A (120 mg/kg/d), hypoxanthine analogue B (120 mg/kg/d) and hypoxanthine analogue C (120 mg/kg/d); and the mice in compound 1 group, compound 2 group . . . compound 12 group respectively received compound 1 (120 mg/kg/d), compound 2 (120 mg/kg/d) . . . compound 12 (120 mg/kg/d) prepared in example 1. After administration for consecutive 14 days, the mice were observed every day, and their weights and death conditions were recorded. After administration, blood was taken from eyeballs for immediately detecting the expression levels of NF-κB, TNF-α, IL-1 and IL-6 in serum, and lung tissues were taken for HE detection and Ashcroft scoring.

Compound | Leucocyte [1] | Lymphocyte [1] | Neutrophil [1] | Ashcroft scores [1] | Hydroxyproline in bronchoalveolar lavage fluids [2] [µg/mg] | Hydroxyproline in lung tissues [2] [µg/mg] | TGF-β in bronchoalveolar lavage fluids [2] [µg/L] | TGF-β in lung tissues [2] [µg/L] | Leucocyte [3] | Lymphocyte [3] | Neutrophil [3] | Ashcroft scores [3] | Ashcroft scores [4] | IL-1β [4] [pg/mL] | IL-6 [4] [pg/mL] | NF-κB [4] [pg/mL] | TNF-α [4] [pg/mL] | also measured
CC(C)Oc1ncnc2[nH]cnc12 [Compound 1] | 7.01 10^9/L | 72.56 10^9/L | 21.01 10^9/L | 1.12 | 0.75 ± 0.04 | 1.45 ± 0.09 | 4.05 ± 0.15 | 24.15 ± 1.21 | 4.15 10^9/L | 5.42 10^9/L | 1.11 10^9/L | 0.99 | 1.18 | 31.8 | 62.7 | 23.9 | 51.8 | –
CC(C)n1cnc2c(=O)[nH]cnc21 [Compound 2] | 6.42 10^9/L | 72.69 10^9/L | 21.93 10^9/L | 1.20 | 0.74 ± 0.05 | 1.51 ± 0.08 | 4.02 ± 0.15 | 24.10 ± 2.14 | 4.11 10^9/L | 5.19 10^9/L | 1.04 10^9/L | 1.01 | 1.16 | 32.0 | 62.6 | 24.6 | 51.2 | –
CC(C)Oc1ncnc2c1ncn2C(C)C [Compound 3] | 6.83 10^9/L | 72.33 10^9/L | 22.12 10^9/L | 0.96 | 0.70 ± 0.05 | 1.31 ± 0.07 | 3.95 ± 0.19 | 24.15 ± 2.04 | 4.01 10^9/L | 4.99 10^9/L | 0.96 10^9/L | 0.92 | 1.03 | 31.3 | 61.7 | 23.7 | 49.9 | –
CC(C)Oc1ncnc2ncn(C(C)C)c12 [Compound 4] | 6.79 10^9/L | 73.37 10^9/L | 22.54 10^9/L | 1.05 | 0.71 ± 0.08 | 1.29 ± 0.08 | 3.95 ± 0.14 | 24.58 ± 1.95 | 4.29 10^9/L | 5.56 10^9/L | 1.31 10^9/L | 1.18 | 1.39 | 35.5 | 63.9 | 26.7 | 52.9 | –
CC(C)Oc1ncnc2nc[nH]c12 [Compound 5] | 6.86 10^9/L | 74.39 10^9/L | 21.91 10^9/L | 1.23 | 0.69 ± 0.09 | 1.43 ± 0.07 | 3.93 ± 0.18 | 24.18 ± 1.65 | 4.23 10^9/L | 5.60 10^9/L | 1.26 10^9/L | 1.22 | 1.31 | 37.1 | 64.9 | 25.9 | 52.6 | –
CC(C)n1cnc2nc[nH]c(=O)c21 [Compound 6] | 6.05 10^9/L | 71.57 10^9/L | 22.72 10^9/L | 1.17 | 0.68 ± 0.07 | 1.46 ± 0.07 | 3.91 ± 0.18 | 24.18 ± 2.14 | 4.25 10^9/L | 5.49 10^9/L | 1.19 10^9/L | 1.08 | 1.30 | 39.5 | 65.7 | 29.3 | 56.2 | –
COc1ncnc2c1ncn2C(C)C [Compound 7] | 7.15 10^9/L | 73.29 10^9/L | 21.45 10^9/L | 1.25 | 0.69 ± 0.08 | 1.42 ± 0.14 | 4.02 ± 0.15 | 25.15 ± 2.53 | – | – | – | – | 1.49 | 33.2 | 64.3 | 25.6 | 55.9 | Leucocyte ([3]; 120 mg/kg/day): 4.19 10^9/L; Lymphocyte ([3]; 120 mg/kg/day): 5.44 10^9/L; Neutrophil ([3]; 120 mg/kg/day): 1.23 10^9/L; Ashcroft scores ([3]; 120 mg/kg/day): 1.11
CCOc1ncnc2c1ncn2C(C)C [Compound 8] | 7.26 10^9/L | 72.52 10^9/L | 23.62 10^9/L | 1.26 | 0.72 ± 0.06 | 1.47 ± 0.10 | 4.06 ± 0.18 | 25.17 ± 2.35 | 4.27 10^9/L | 5.31 10^9/L | 1.26 10^9/L | 1.09 | 1.29 | 36.6 | 66.7 | 28.3 | 56.1 | –
CCCOc1ncnc2c1ncn2C(C)C [Compound 9] | 6.79 10^9/L | 73.19 10^9/L | 22.06 10^9/L | 1.38 | 0.73 ± 0.09 | 1.41 ± 0.09 | 4.05 ± 0.14 | 25.65 ± 2.16 | 4.14 10^9/L | 5.23 10^9/L | 1.33 10^9/L | 1.12 | 1.31 | 35.9 | 64.3 | 24.4 | 55.1 | –
